# Reference: patent US20260285850A1, “SUBSTITUTED OXAZOLIDINONES AND IMIDAZOLINONES AS HERBICIDES” (FMC CORPORATION, priority 2023, published 2026)
# What was measured:
# Assay type in all cases: in vivo
# [1] = tested on: palmer (palmer amaranth, palmer pigweed, Amaranthus palmeri); test: Test A preemergence soil spray, visual injury rating 0-100; details: 1000 g ai/ha, 10 days, 0 = no effect, 100 = complete control
# Outline: (§1)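 Plants were grown in a loam soil-sand blend and treated with test chemical in a non-phytotoxic solvent mixture containing surfactant, either sprayed on soil preemergence or applied postemergence to 2-10 cm plants. After 10 days in a greenhouse, injury was scored visually against untreated controls, 0 meaning no effect and 100 complete control.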
# [2] = tested on: goosegrass (Eleusine indica); test: as above; details: 1000 g ai/ha, 10 days, 0 = no effect, 100 = complete control
# Outline: as §1
# [3] = tested on: foxtail, giant (giant foxtail, Setaria faberi); test: as above; details: 1000 g ai/ha, 10 days, 0 = no effect, 100 = complete control
# Outline: as §1
# [4] = tested on: kochia (Bassia scoparia); test: as above; details: 1000 g ai/ha, 10 days, 0 = no effect, 100 = complete control
# Outline: as §1
# [5] = tested on: blackgrass (Alopecurus myosuroides); test: as above; details: 1000 g ai/ha, 10 days, 0 = no effect, 100 = complete control
# Outline: as §1
# [6] = tested on: ragweed (common ragweed, Ambrosia artemisiifolia); test: as above; details: 1000 g ai/ha, 10 days, 0 = no effect, 100 = complete control
# Outline: as §1
# [7] = tested on: ryegrass, Italian (italian ryegrass, Lolium multiflorum); test: as above; details: 1000 g ai/ha, 10 days, 0 = no effect, 100 = complete control
# Outline: as §1
# [8] = tested on: barnyardgrass (Echinochloa crusgalli); test: Test B flooded paddy test, visual plant response rating 0-100; details: 250 g ai/ha, Flood, applied to paddy water, evaluated after 13 days
# Outline: (§2)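 Plants were grown to the 2-leaf stage, then pots were flooded to 3 cm above the soil and compound was applied directly to the paddy water, with that depth kept throughout.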
# [9] = tested on: rice (Oryza sativa); test: as above; details: 250 g ai/ha, Flood, applied to paddy water, evaluated after 13 days
# Outline: as §2
# [10] = tested on: sedge, umbrella (small-flower umbrella sedge, Cyperus difformis); test: as above; details: 250 g ai/ha, Flood, applied to paddy water, evaluated after 13 days
# Outline: as §2
# [11] = tested on: ducksalad (Heteranthera limosa); test: as above; details: 250 g ai/ha, Flood, applied to paddy water, evaluated after 13 days
# Outline: as §2
# [12] = tested on: palmer (palmer amaranth, palmer pigweed, Amaranthus palmeri); test: Test A postemergence application, visual injury rating 0-100; details: Postemergence, 1000 g ai/ha, 0 to 100 scale, 10 days
# Outline: as §1
# [13] = tested on: goosegrass (Eleusine indica); test: as above; details: 1000 g ai/ha, 0 to 100 scale, 10 days
# Outline: as §1
# [14] = tested on: foxtail, giant (giant foxtail, Setaria faberi); test: as above; details: 1000 g ai/ha, 0 to 100 scale, 10 days
# Outline: as §1
# [15] = tested on: kochia (Bassia scoparia); test: as above; details: Postemergence, 1000 g ai/ha, 0 to 100 scale, 10 days
# Outline: as §1
# [16] = tested on: horseweed (Erigeron canadensis); test: as above; details: Postemergence, 1000 g ai/ha, 0 to 100 scale, 10 days
# Outline: as §1
# [17] = tested on: blackgrass (Alopecurus myosuroides); test: as above; details: Postemergence, 1000 g ai/ha, 0 to 100 scale, 10 days
# Outline: as §1
# [18] = tested on: ragweed (common ragweed, Ambrosia artemisiifolia); test: as above; details: Postemergence, 1000 g ai/ha, 0 to 100 scale, 10 days
# Outline: as §1
# [19] = tested on: galium (catchweed bedstraw, Galium aparine); test: as above; details: Postemergence, 1000 g ai/ha, 0 to 100 scale, 10 days
# Outline: as §1
# [20] = tested on: ryegrass, Italian (italian ryegrass, Lolium multiflorum); test: as above; details: Postemergence, 1000 g ai/ha, 0 to 100 scale, 10 days
# Outline: as §1
smiles,measurement,setting,value
CCOC(=O)C1C=CC(NC(=O)C2(C)CN(c3cc(F)cc(F)c3)C(=O)O2)C1 (centres unmarked) [Compound 28],"Amaranth, Palmer / Pigweed, Palmer plant response rating (0 to 100 scale)",[1],100
same,Goosegrass plant response rating (0 to 100 scale),[2],100
same,"Foxtail, Giant plant response rating (0 to 100 scale)",[3],100
same,Kochia plant response rating (0 to 100 scale),[4],100
same,Blackgrass plant response rating (0 to 100 scale),[5],90
same,Ragweed plant response rating (0 to 100 scale),[6],80
same,"Ryegrass, Italian plant response rating (0 to 100 scale)",[7],100
same,"Plant response rating, Barnyardgrass (0 to 100 scale, 0 is no effect and 100 is complete control)",[8],85
same,"Plant response rating, Rice (0 to 100 scale, 0 is no effect and 100 is complete control)",[9],70
same,"Plant response rating, Sedge, Umbrella (0 to 100 scale, 0 is no effect and 100 is complete control)",[10],65
same,"Plant response rating, Ducksalad (0 to 100 scale, 0 is no effect and 100 is complete control)",[11],75
same,"Amaranth, Palmer plant response rating",[12],90
same,Goosegrass plant response rating,[13],90
same,"Foxtail, Giant plant response rating",[14],90
same,Kochia plant response rating,[15],80
same,Horseweed plant response rating,[16],80
same,Blackgrass plant response rating,[17],100
same,Ragweed plant response rating,[18],70
same,Galium plant response rating,[19],70
same,"Ryegrass, Italian plant response rating",[20],80
